Data taken from patent publication US6720313B1, “Biocidal composition containing phosphite ions” (Mattersmiths Holdings Limited, priority 1998, dated 2004).
Converted amounts (≈) assume the structure as drawn. Like-named read-outs stand apart in the source and are kept apart here.

How the values were obtained:
[1] = acids including phosphorous acid; cited from earlier work
[2] = Experimental: These are prepared by addition of stoicheiometric quantities of precursors of the compounds concerned to produce the salt desired.
[3] = metal oxinates; cited from earlier work
[4] = cited from earlier work
[5] = format: physicochemical
Text: We decreased the pH by addition of phosphorous acid.
We have achieved solubility of fenpropimorph of as much as 10% by weight. This high level of solubility remains when that active is also the presence of 10-20% of other biocides.

[6] = test system: natural fungal inoculum on mini discs of Pinus radiata; assay: mini disc trial of fungicidal efficacy; format: cell-based; conditions: compared with untreated control
Experimental: For example, a mini disc trial, typically used to assess formulation efficacy, was used to establish relative efficacy of various formulations. Included in the trial were formulations using both phosphoric acid and phosphorous acid.
These examples were then diluted in water to produce stable solutions and then tested against a natural fungal inoculum on mini discs of Pinus radiata to determine fungicidal efficacy. The following table, Table 5, illustrates the relative performance of each biocide after 3 weeks in an incubator.
These formulations were then diluted and tested using the mini disc method. Also included was an industry standard based on the formulation of U.S. Pat. No. 4,950,685 coded in the trial as KC1 and listed in Table 7.
The formulations were then tested using a mini disc trial with results as disclosed in Table 9.

[7] = cited from earlier work; remark: listed apart in the source
[8] = precipitation of solubilised biocides on addition of a higher pH solution; format: physicochemical; conditions: aqueous solutions, pH raised to greater than 5
Text: We carried out several studies, some in aqueous systems and others on wood subsequent to the biocide formulation being applied, wherein we applied a further solution with higher pH to increase the pH to greater than 5.

[9] = solubility studies of oxine copper using the invention; format: physicochemical
Text: We have carried out many solubility studies using the technology of this invention. For example, we are able to produce solutions stable at ambient temperature of oxine copper at concentrations greater than 100 grams per 200 mls of final product. Because the specific gravity of such solutions is approximately […] this yields a solution of oxine copper of 50 per cent weight/volume or more. This concentration is commercially viable to use and eliminates many of the potentially toxic or flammable formulation aids used in prior art solubilisation of oxine copper.

| Compound | pH complete precipitation [3] | pH initial precipitation [3] | also measured |
| --- | --- | --- | --- |
| mancozeb | – | – | stability to acids [1]: decomposed by acids |
| [Fe+3].[O-]c1cccc2cccnc12.[O-]c1cccc2cccnc12.[O-]c1cccc2cccnc12 [Iron] | 4.1-11.2 | 2.5 | pH for dissolution ([2]; transition metal phosphites): <3.5; Solubility at pH = 7 ([2]; transition metal phosphites, pH = 7): Insoluble |
| [Ni+2].[O-]c1cccc2cccnc12.[O-]c1cccc2cccnc12 [Nickel] | 4.6-10.0 | 3.5 | pH for dissolution [2]: <4.5 |
| [Co+2].[O-]c1cccc2cccnc12.[O-]c1cccc2cccnc12 [Cobalt] | 4.9-11.6 | 3.6 | pH for dissolution ([2]; transition metal phosphites): <4.5 |
| Titanium | 4.8-8.6 | 3.6 | – |
| phosethyl-Al | – | – | stability to acids [1]: decomposed by acids |
| maneb | – | – | stability to acids [1]: decomposed by acids |
| CC(Cc1ccc(C(C)(C)C)cc1)CN1C[C@@H](C)O[C@@H](C)C1 (some centres unmarked) [fenpropimorph, dimethylethyl phenyl methylpropyl dimethylmorpholine] | – | – | Solubility ([4]; pH 4.4): 7300 mg/L (≈ 24100 µM); Solubility ([4]; pH 7): 4.3 mg/L (≈ 14.2 µM); Solubility ([4]; pH 9): 3.5 mg/L (≈ 11.5 µM); solubility achieved [5]: ≤ 10 % by weight |
| [Al+3].[O-]c1cccc2cccnc12.[O-]c1cccc2cccnc12.[O-]c1cccc2cccnc12 [Aluminium] | 4.7-9.8 | 2.9 | – |
| [O-]c1cccc2cccnc12.[O-]c1cccc2cccnc12.[Zn+2] [Zinc] | >4.4 | 3.3 | – |
| Bismuth | 5.2-9.4 | 3.7 | – |
| [Cd] [Cadmium] | 5.5-13.2 | 4.5 | – |
| copper | >3.3 | 3.0 | Solubility at pH = 7 [2]: Insoluble; pH for dissolution ([2]; transition metal phosphites): <3.5 |
| OP(O)O [phosphorous acid] | – | – | fungicidal activity of phosphorous acid alone [6]: marginal improvement over the untreated control |
| [Mo] [Molybdenum] | 3.6-7.3 | 2.0 | – |
| [Mg] [Magnesium] | >8.7 | 7.0 | – |
| [Ca] [Calcium] | 9.2-12.7 | 6.8 | – |
| arsenic | – | – | LD50 Rat [7]: 15 to 293 mg/kg |
| [Mn+2] [Manganese] | 5.9-9.5 | 4.3 | Solubility at pH = 7 [2]: Insoluble; pH for dissolution ([2]; transition metal phosphites): <4.5 |
| COC(=O)Nc1nc2ccccc2[nH]1 [Carbendazim, methyl benzimidazoyl carbamate] | – | – | effect of adding a solution of higher pH [8]: immediate precipitation |
| [O-]c1cccc2cccnc12.[O-]c1cccc2cccnc12.[Pb+2] [Lead] | 8.4-12.3 | 4.8 | – |
| Tungsten | 5.0-5.7 | 3.5 | – |
| copper 8-hydroxyquinolinolate [oxine copper] | greater than 3.3 | – | effect of adding a solution of higher pH [8]: immediate precipitation; solution concentration weight/volume ([9]; ambient temperature): ≥ 50 per cent weight/volume; concentration of solutions stable at ambient temperature ([9]; phosphorous acid solution): greater than 100 grams per 200 mls of final product; Oral LD50 Rat ([7]; in vivo, po): 10,000 mg/kg |
